Experimental findings from patent US20040072824A1, “Methods and compositions for the treatment of cancer” (priority 2001, published 2004) are described below.

Data set [1] deals with U937 cells. Description: Antineoplastic activity, U937 cells injected in scid/scid mice, treatment from day 1. The class given is in vivo. The settings on record: 100 mg/kg; six mice. As for the experimental part:
Ten million U937 cells were subcutaneously injected into scid/scid mice. One injection was carried out per each of the 6 mice tested per set. The excipient or the compounds tested were administered intraperitoneally on day 1, i.e., the day of U937 cell line inoculation, of the experiment. The excipients or compounds were administered once daily. The tumor sizes were measured on day 5, day 8, day 12, day 14 and day 19 after the injection.

Data set [2] concerns U937 cells. Description: Curative effects on palpable tumors, U937 cells in scid/scid mice. In kind it is in vivo. As for the experimental part:
In this series of experiments, effects of various compounds of the present invention on tumor development were tested using two protocols. The first protocol is directed to the testing of curative effects of these compounds in different cell lines. In this protocol, cancerous cells are inoculated to the animals, and the inoculated animals were left without any further treatment until the development of tumors. As soon as the tumors became palable (4 mm^3), the compounds of this invention were administered daily to the animals. Two different cell lines, i.e., U937 and MDA-MB-231 (breast cancer line), were used for this protocol to inoculate scid/scid mice.

Data set [3] has as its system blastic cells from AML patients. The data set is described as follows: Inhibition of viability of fresh leukemic cells (trypan blue exclusion). The settings on record: Homo sapiens, day 3; for cytotoxicity at 10 µM: 10^-5 M; for cytotoxicity at 1 µM: 10^-6 M. The class given is cell-based, human. The procedure, abridged:
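Blasts from AML samples 1 to 5 (least to most differentiated) were incubated with or without anti-histamine derivatives, with Polaramine as negative control. Viable counts by trypan blue exclusion at day 3, with Wright-Giemsa morphology. Values are % growth inhibition versus negative control.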

The test system of data set [4] is K562, U937, MDA-DB231, BT20 and MCF7 cell lines. The data set is described as follows: Cytotoxic effects in multi-well plate, 6 days, ATP level (CellTiter-Glo). The following applies: 2x10^-9 M to 2x10^-4 M.
In the next data set the test system is U937. In kind it is in vivo. The following applies: treatment from day 1, cells inoculated after more than 24 hours, daily administration. As for the experimental part:
The second protocol was designed to test the preventive effects of the compounds of this invention on tumorigenesis. In this protocol, the animals have been treated with various compounds of the present invention on day 1. After more than 24 hours, tumoral cells were inoculated. The administration of the compounds of this invention was maintained daily. The cell line used for this test was U937.

The mark [5] stands for this setting: 72 h, MEAN over AML patients, read-out: In Vitro Percent Inhibition of Viability, MEAN.
Setting [6] is: 72 h, patient ID 3, FAB AML2, read-out: In Vitro Percent Inhibition of Viability.
Where [7] appears, read: 72 h, patient ID 4, FAB AML2, read-out: In Vitro Percent Inhibition of Viability.
Setting [8] is: 72 h, patient ID 5, FAB AML2, read-out: In Vitro Percent Inhibition of Viability.
Setting [9] is: 72 h, patient ID 10, FAB AML4, read-out: In Vitro Percent Inhibition of Viability.
Setting [10] is: 72 h, patient ID 11, FAB AML5, read-out: In Vitro Percent Inhibition of Viability.
The mark [11] stands for this setting: 72 h, patient ID 13, FAB AML5, read-out: In Vitro Percent Inhibition of Viability.
Where [12] appears, read: 72 h, patient ID 14, FAB AML5, read-out: In Vitro Percent Inhibition of Viability.
Where [13] appears, read: 72 h, patient ID 15, FAB AML5, read-out: In Vitro Percent Inhibition of Viability.
Where [14] appears, read: AML1, 72 h, patient ID 1, FAB AML1, read-out: In Vitro Percent Inhibition of Viability.
[15] abbreviates: AML1, 72 h, patient ID 2, FAB AML1, read-out: In Vitro Percent Inhibition of Viability.
Where [16] appears, read: AML3, 72 h, patient ID 6, FAB AML3, read-out: In Vitro Percent Inhibition of Viability.
Setting [17] is: AML3, 72 h, patient ID 7, FAB AML3, read-out: In Vitro Percent Inhibition of Viability.
Setting [18] is: AML3, 72 h, patient ID 8, FAB AML3, read-out: In Vitro Percent Inhibition of Viability.
[19] abbreviates: AML3, 72 h, patient ID 9, FAB AML3, read-out: In Vitro Percent Inhibition of Viability.

Read-outs that look alike come from different tables or passages of the source.

`Nc1ccn([C@@H]2O[C@H](CO)[C@@H](O)[C@@H]2O)c(=O)n1` [ARA-C, cytarabine]: the “mice that developed a tumor” value in the data set on U937 cells [1] is “none of the six”. The tumor development entry with U937 cells [2] (positive control, treated once tumors palpable) is on record as “no tumor development”.
Turning to `CSc1ccc2c(c1)N(CCC1CCCCN1C)c1ccccc1S2` (stereo not drawn) [S60, thioridazine], the cytotoxicity at 10 µM is 53% in data set [3] (setting [5]); 91% in data set [3] (setting [6]); 42% in data set [3] (setting [7]); 51% in data set [3] (setting [8]); 48% in data set [3] (setting [9]); 43% in data set [3] (setting [10]). The cytotoxicity at 10 µM is 88% in data set [3] (72 h, patient ID 12, FAB AML5, read-out: In Vitro Percent Inhibition of Viability); 62% in data set [3] (setting [11]); 15% in data set [3] (setting [12]); 27% in data set [3] (setting [13]); 42% in data set [3] (setting [14]); 13% in data set [3] (setting [15]). Further, the cytotoxicity at 10 µM in data set [3] (setting [16]) amounted to 89%; in data set [3] (setting [17]), 95%; in data set [3] (setting [18]), 56%; in data set [3] (setting [19]), 38%. Moreover, the cytotoxicity at 1 µM in data set [3] (setting [5]) came to 14%; in data set [3] (setting [6]), 12%; in data set [3] (setting [7]), 19%; in data set [3] (setting [8]), 35%; in data set [3] (setting [9]), 6%; in data set [3] (setting [10]), 39%. In addition, the cytotoxicity at 1 µM in data set [3] (setting [11]) was 15%; in data set [3] (setting [12]) it was 25%; in data set [3] (setting [13]), 0%; in data set [3] (setting [14]) it was 8%; in data set [3] (setting [15]), 8%; in data set [3] (setting [16]) it was 13%. Moreover, the results for the cytotoxicity at 1 µM in data set [3] (setting [17]), in data set [3] (setting [18]) and in data set [3] (setting [19]) were 12%, 0% and 0%, respectively. For the same compound, the cytotoxic effect group result in data set [4] is on record as “I”. Besides, the “tumor growth compared to the negative control” value with U937 is “decrease in tumor growth”. For the same compound, the tumor growth result with U937 cells [2] (daily administration once tumors palpable (4 mm^3)) is “delay in the tumor growth”.
